Blank lines part the entries; values can stand above or below the molecule they belong to.
Tests used:
prostate cancer (PC-3) = experiment: MTT antiproliferative assay, PC-3; conditions: for Growth inhibition (%) PC-3: 100 μM, MTT; for inhibition at 100 µM: read-out: Growth inhibition (%) PC-3
Method: (§1) Preliminary screening against the cancer cell lines was performed, using doxorubicin as a reference drug at doses of 100 μM.
(§2) In vitro cytotoxicity was carried out using MTT assay protocol[63] as described in Supplementary data.
(§3) proliferative activity was assessed quantitatively as follows;
(§4) Human cancer cell lines were dropped in 96-well plates at a density of 3-8 × 10^3 cells/well.
(§5) growth medium was exchanged with 0.1 ml of fresh medium containing graded concentrations of the test compounds to be or equal DMSO and incubated for two days. Then 10 μl MTT solution (0.5 mg/ml) was added to each well, and the cells were incubated for additional 4 h. The crystals of MTT-formazan were dissolved in 100 μl of DMSO; the absorbance of each well was measured at 490 nm using an automatic ELISA reader system (TECAN, CHE). The IC50 values were calculated using the nonlinear regression fitting models (Graph Pad, Prism Version 5). The data represented the mean of three independent experiments in triplicate and were expressed as means
(§6) The results were expressed as growth inhibitory concentration (IC50) values and

breast cancer (MCF-7) = experiment: MTT antiproliferative assay, MCF-7; conditions: for Growth inhibition (%) MCF-7: 100 μM, MTT; for inhibition at 100 µM: MCF7, read-out: Growth inhibition (%) MCF-7
Method: as §1, §2, §3, §4, §5, §6

colon cancer (HCT-116) = experiment: MTT antiproliferative assay, HCT-116; conditions: for Growth inhibition (%) HCT-116: 100 μM; for inhibition at 100 µM: HCT-116, read-out: Growth inhibition (%) HCT-116
Method: as §1, §2, §3, §4, §5, §6

lung cancer (A-549) = experiment: MTT antiproliferative assay, A-549; conditions: for Growth inhibition (%) A549: 100 μM, MTT; for inhibition at 100 µM: A549, read-out: Growth inhibition (%) A549
Method: as §1, §2, §3, §4, §5, §6

caspase-3 in PC-3 cells = experiment: Caspase-3 determination (ELISA); type: cell-based, human; conditions: 24 h treatment, 8a at 3.04 µM, control 84.24, mean ± SEM

Molecule: 3-Amino-6–(4-methoxyphenyl)-8-(p-tolyl)-2,3-dihydropyrido[2,3-d][1, 2, 4] triazolo[4,3-a]pyrimidin-5(1H)-one [Compound 11c]
Growth inhibition (%) PC-3 (prostate cancer (PC-3)): 28% | Growth inhibition (%) MCF-7 (breast cancer (MCF-7)): 23% | Growth inhibition (%) HCT-116 (colon cancer (HCT-116); MTT): 3% | Growth inhibition (%) A549 (lung cancer (A-549)): 26%

Molecule: 3-Amino-8-(p-Tolyl)-6–(3,4,5-trimethoxyphenyl)-2,3-dihydropyrido[2,3-d][1, 2, 4]triazolo[4,3-a]pyrimidin-5(1H)-one [Compound 11e]
Growth inhibition (%) PC-3 (prostate cancer (PC-3)): 22% | Growth inhibition (%) MCF-7 (breast cancer (MCF-7)): 23% | Growth inhibition (%) HCT-116 (colon cancer (HCT-116); MTT): 6% | Growth inhibition (%) A549 (lung cancer (A-549)): 30%

Molecule: 3-Amino-8–(4-chlorophenyl)-6-(p-tolyl)-2,3-dihydropyrido[2,3-d][1, 2, 4] triazolo[4,3-a]pyrimidin-5(1H)-one [Compound 11b]
Growth inhibition (%) PC-3 (prostate cancer (PC-3)): 43% | Growth inhibition (%) MCF-7 (breast cancer (MCF-7)): 29% | Growth inhibition (%) HCT-116 (colon cancer (HCT-116); MTT): 15% | Growth inhibition (%) A549 (lung cancer (A-549)): 28%

Molecule: 3-Amino-8–(4-chlorophenyl)-6–(2,4-dichlorophenyl)-10,10a-dihydropyrido [2,3-d][1, 2, 4]triazolo[4,3-a]pyrimidin-5(1H)-one [Compound 11a]
Growth inhibition (%) PC-3 (prostate cancer (PC-3)): 30% | Growth inhibition (%) MCF-7 (breast cancer (MCF-7)): 7% | Growth inhibition (%) HCT-116 (colon cancer (HCT-116); MTT): 9% | Growth inhibition (%) A549 (lung cancer (A-549)): 2%

Molecule: 3-Amino-8–(4-chlorophenyl)-6–(3,4,5-trimethoxyphenyl) -2,3dihydropyrido[2,3-d][1, 2, 4]triazolo[4,3-a] pyrimidin-5(1H)-one [Compound 11d]
Growth inhibition (%) PC-3 (prostate cancer (PC-3)): 20% | Growth inhibition (%) MCF-7 (breast cancer (MCF-7)): 37% | Growth inhibition (%) HCT-116 (colon cancer (HCT-116); MTT): 3% | Growth inhibition (%) A549 (lung cancer (A-549)): 5%

melting point: 318 to 320 °C
Molecule: O=c1[nH]c(=S)[nH]c2nc(-c3ccc(Cl)cc3)cc(-c3ccc(Cl)cc3Cl)c12 [Compound 7a, 7–(4-Chlorophenyl)-5–(2,4-dichlorophenyl)-2-thioxo-2,3-dihydropyrido [2,3-d]pyrimidin-4(1H)-one]
inhibition at 100 µM (prostate cancer (PC-3); Homo sapiens): 12% | inhibition at 100 µM (breast cancer (MCF-7); Homo sapiens): 34% | inhibition at 100 µM (colon cancer (HCT-116); Homo sapiens): 18% | inhibition at 100 µM (lung cancer (A-549); Homo sapiens): 14%

melting point: < 300 °C
Molecule: COc1cc(-c2cc(-c3ccc(Cl)cc3)nc3nc4[nH]c5ccccc5c(=O)n4c(=O)c23)cc(OC)c1OC [Compound 8c, 2–(4-Chlorophenyl)-4–(3,4,5-trimethoxyphenyl)-5H-pyrido [2',3':4,5] pyrimido[2,1-b]quinazoline-5,7(12H)-dione]
inhibition at 100 µM (prostate cancer (PC-3); Homo sapiens): 17% | inhibition at 100 µM (breast cancer (MCF-7); Homo sapiens): 21% | inhibition at 100 µM (colon cancer (HCT-116); Homo sapiens): 9% | inhibition at 100 µM (lung cancer (A-549); Homo sapiens): 8%

melting point: 347 to 349 °C
Molecule: Cc1ccc(-c2cc(-c3ccc(Cl)cc3)nc3nc4[nH][nH]c(=O)n4c(=O)c23)cc1 [Compound 10a, 8-(4-Chlorophenyl)-6-(p-tolyl)-1,2-dihydropyrido[2,3-d][1,2, 4]triazolo[4,3-a]pyrimidine-3,5-dione]
inhibition at 100 µM (prostate cancer (PC-3); Homo sapiens): 29% | inhibition at 100 µM (breast cancer (MCF-7); Homo sapiens): 41% | inhibition at 100 µM (colon cancer (HCT-116); Homo sapiens): 21% | inhibition at 100 µM (lung cancer (A-549); Homo sapiens): 17%

melting point: 366 to 368 °C
Molecule: COc1ccc(-c2cc(-c3ccc(C)cc3)nc3nc4[nH][nH]c(=O)n4c(=O)c23)cc1 [Compound 10b, 6-(4-Methoxyphenyl)-8-(p-tolyl)-1,2-dihydropyrido[2,3-d][1,2, 4]triazolo[4,3-a]pyrimidine-3,5-dione]
inhibition at 100 µM (prostate cancer (PC-3); Homo sapiens): 15% | inhibition at 100 µM (breast cancer (MCF-7); Homo sapiens): 4% | inhibition at 100 µM (colon cancer (HCT-116); Homo sapiens): 14% | inhibition at 100 µM (lung cancer (A-549); Homo sapiens): 7%

melting point: 367 to 369 °C
Molecule: COc1cc(-c2cc(-c3ccc(Cl)cc3)nc3nc4[nH][nH]c(=O)n4c(=O)c23)cc(OC)c1OC [Compound 10c, 8-(4-Chlorophenyl)-6–(3,4,5-trimethoxyphenyl)-1,2-dihydropyrido[2,3-d][1,2, 4]triazolo[4,3-a]pyrimidine-3,5-dione]
inhibition at 100 µM (prostate cancer (PC-3); Homo sapiens): 52% | inhibition at 100 µM (breast cancer (MCF-7); Homo sapiens): 8% | inhibition at 100 µM (colon cancer (HCT-116); Homo sapiens): 23% | inhibition at 100 µM (lung cancer (A-549); Homo sapiens): 9%

melting point: 391 to 393 °C
Molecule: COc1cc(-c2cc(-c3ccc(C)cc3)nc3nc4[nH][nH]c(=O)n4c(=O)c23)cc(OC)c1OC [Compound 10d, 8-(p-Tolyl)-6–(3,4,5-trimethoxyphenyl)-1,2-dihydropyrido[2,3-d][1,2, 4]triazolo [4,3-a]pyrimidine-3,5-dione]
inhibition at 100 µM (prostate cancer (PC-3); Homo sapiens): 8% | inhibition at 100 µM (breast cancer (MCF-7); Homo sapiens): 5% | inhibition at 100 µM (colon cancer (HCT-116); Homo sapiens): 5% | inhibition at 100 µM (lung cancer (A-549); Homo sapiens): 2%

melting point: 315 to 317 °C
Molecule: Cc1ccc(-c2cc(-c3ccc(Cl)cc3)nc3nc4[nH]nc(-c5ccccc5)n4c(=O)c23)cc1 [Compound 12a, 8–(4-Chlorophenyl)-3-phenyl-6-(p-tolyl)pyrido[2,3-d][1,2, 4]triazolo[4,3-a]pyrimidin-5(1H)-one]
inhibition at 100 µM (prostate cancer (PC-3); Homo sapiens): 28% | inhibition at 100 µM (breast cancer (MCF-7); Homo sapiens): 45% | inhibition at 100 µM (colon cancer (HCT-116); Homo sapiens): 35% | inhibition at 100 µM (lung cancer (A-549); Homo sapiens): 41%

melting point: 325 to 327 °C | IC50 (colon cancer (HCT-116); Homo sapiens, HCT-116, read-out: IC50 HCT-116): 86.3 ± 2.2 µM
Molecule: COc1ccc(-c2cc(-c3ccc(C)cc3)nc3nc4[nH]nc(-c5ccccc5)n4c(=O)c23)cc1 [Compound 12b, 6-(4-Methoxyphenyl)-3-phenyl-8-(p-tolyl)pyrido[2,3-d][1,2, 4]triazolo[4,3-a]pyrimidin-5(1H)-one]
inhibition at 100 µM (prostate cancer (PC-3); Homo sapiens): 36% | inhibition at 100 µM (breast cancer (MCF-7); Homo sapiens): 54% | inhibition at 100 µM (colon cancer (HCT-116); Homo sapiens): 56% | Cytotoxic activity against HCT-116 (colon cancer (HCT-116); MTT): mild cytotoxic activity | inhibition at 100 µM (lung cancer (A-549); Homo sapiens): 33%

melting point: 313 to 315 °C
Molecule: COc1cc(-c2cc(-c3ccc(Cl)cc3)nc3nc4[nH]nc(-c5ccccc5)n4c(=O)c23)cc(OC)c1OC [Compound 12c, 8-(4-Chlorophenyl)-3-phenyl-6–(3,4,5-trimethoxyphenyl)pyrido[2,3-d][1,2, 4]triazolo[4,3-a]pyrimidin-5(1H)-one]
inhibition at 100 µM (prostate cancer (PC-3); Homo sapiens): 30% | inhibition at 100 µM (breast cancer (MCF-7); Homo sapiens): 55% | inhibition at 100 µM (colon cancer (HCT-116); Homo sapiens): 33% | inhibition at 100 µM (lung cancer (A-549); Homo sapiens): 22%

melting point: 322 to 324 °C
Molecule: COc1cc(-c2cc(-c3ccc(C)cc3)nc3nc4[nH]nc(-c5ccccc5)n4c(=O)c23)cc(OC)c1OC [Compound 12d, 3-Phenyl-8-(p-tolyl)-6–(3,4,5-trimethoxyphenyl)pyrido[2,3-d][1,2, 4]triazolo [4,3-a]pyrimidin-5(1H)-one]
inhibition at 100 µM (prostate cancer (PC-3); Homo sapiens): 14% | inhibition at 100 µM (breast cancer (MCF-7); Homo sapiens): 15% | inhibition at 100 µM (colon cancer (HCT-116); Homo sapiens): 5% | inhibition at 100 µM (lung cancer (A-549); Homo sapiens): 4%

Molecule: COc1cccc2c1C(=O)c1c(O)c3c(c(O)c1C2=O)C[C@@](O)(C(=O)CO)C[C@@H]3O[C@H]1C[C@H](N)[C@H](O)[C@H](C)O1 [Doxorubicin, reference compound]
inhibition at 100 µM (prostate cancer (PC-3); Homo sapiens): 100% | inhibition at 100 µM (breast cancer (MCF-7); Homo sapiens): 100% | inhibition at 100 µM (colon cancer (HCT-116); Homo sapiens): 100% | inhibition at 100 µM (lung cancer (A-549); Homo sapiens): 100%

IC50 (prostate cancer (PC-3); Homo sapiens, read-out: IC50 PC-3): 11.1 ± 1.07 µM | IC50 (breast cancer (MCF-7); Homo sapiens, MCF7, read-out: IC50 MCF-7): 4.21 ± 0.62 µM | IC50 (lung cancer (A-549); Homo sapiens, A549, read-out: IC50 A-549): 6.53 ± 0.82 µM
Molecule: C#Cc1cccc(Nc2ncnc3cc(OCCOC)c(OCCOC)cc23)c1 [Erlotinib, reference compound]

Molecule: CN[C@@H]1C[C@H]2O[C@@](C)([C@@H]1OC)n1c3ccccc3c3c4c(c5c6ccccc6n2c5c31)C(=O)NC4 [Staurosporine, reference compound]
Caspase-3 level (caspase-3 in PC-3 cells): 413.1 ± 11.66 pg/mL | Caspase-3 level (caspase-3 in PC-3 cells; listed as staurosporine): 413.1 pg/mL

From PMC9291687
